According to paper PMC10398685 (ACS Omega, 2023):
Like-named read-outs stand apart in the source and are kept apart here.

Columns and labels:
SARS-CoV-2 [1] = experiment: microbe, parasite or virus in culture; type: cell-based; conditions: Severe acute respiratory syndrome coronavirus 2, 72 h; Calu-3 cells, MOI~0.03, 3 days incubation, CPE by XTT; read-out: EC50 (anti-SARS-CoV-2 activity)
SARS-CoV-2 [2] = experiment: microbe, parasite or virus in culture; type: cell-based; conditions: Severe acute respiratory syndrome coronavirus 2, Vero C1008, 72 h; VeroE6 cells, MOI~0.03, 3 days incubation, CPE by XTT; read-out: EC50 (anti-SARS-CoV-2 activity)
[3] = Cytotoxicity (XTT) in Calu-3 cells; conditions: human
[4] = Cytotoxicity (XTT) in Vero E6 cells; conditions: African green monkey
[5] = biological target: SARS-CoV-2 nsp14 7-N MTase (Severe acute respiratory syndrome coronavirus 2, UniProt P0DTD1); experiment: biochemical; conditions: Echo MS assay, 20 nM nsp14, 4 μM SAM, 4 μM GpppA, duplicates
in vitro [6] = conditions: human
in vitro [7] = conditions: African green monkey
[8] = in the same cell type; cited from earlier work

CCC(CC)COC(=O)[C@H](C)N[P@](=O)(OC[C@H]1O[C@@](C#N)(c2ccc3c(N)ncnn23)[C@H](O)[C@@H]1O)Oc1ccccc1 [Remdesivir, reference compound]
EC50 (SARS-CoV-2 [1]): 0.26 µM | EC50 (SARS-CoV-2 [2]): 1.2 µM | CC50 at 3 days [3]: > 50 µM | CC50 at 3 days [4]: > 50 µM

CCN(C[C@H]1O[C@@H](n2cc(C#Cc3cnc(N)nc3)c3c(N)ncnc32)[C@H](O)[C@@H]1O)S(=O)(=O)c1ccc(OC)c(C#N)c1 [Compound 12i]
IC50 [5]: 0.038 ± 0.0042 µM | EC50 (SARS-CoV-2 [1]): > 100 µM | EC50 (SARS-CoV-2 [2]): > 100 µM | CC50 at 3 days (in vitro [6]): > 100 µM | CC50 at 3 days (in vitro [7]): > 100 µM

CC(C)OC(=O)[C@H](C)N[P@](=O)(CO[C@H](C)Cn1cnc2c(N)ncnc21)Oc1ccccc1 [tenofovir alafenamide]
Reported intracellular uptake, free tenofovir [8]: 67 µM | Reported intracellular uptake, prodrug [8]: 0.9 µM

CCN(C[C@H]1O[C@@H](n2cc(C#Cc3cnc(O)nc3)c3c(N)ncnc32)[C@H](O)[C@@H]1O)S(=O)(=O)c1ccc(OC)c(C#N)c1 [Compound 12g]
IC50 [5]: 0.075 ± 0.0083 µM | EC50 (SARS-CoV-2 [1]): > 100 µM | EC50 (SARS-CoV-2 [2]): > 100 µM | CC50 at 3 days (in vitro [6]): > 100 µM | CC50 at 3 days (in vitro [7]): > 100 µM

CCN(C[C@H]1O[C@@H](n2cc(C#Cc3ccc(C(=O)O)cc3)c3c(N)ncnc32)[C@H](O)[C@@H]1O)S(=O)(=O)c1ccc(OC)c(C#N)c1 [Compound 12p]
IC50 [5]: 0.084 ± 0.0094 µM | EC50 (SARS-CoV-2 [1]): > 100 µM | EC50 (SARS-CoV-2 [2]): > 100 µM | CC50 at 3 days (in vitro [6]): > 100 µM | CC50 at 3 days (in vitro [7]): > 100 µM

CCN(C[C@H]1O[C@@H](n2cnc3c(N)ncnc32)[C@H](O)[C@@H]1O)S(=O)(=O)c1ccc(OC)c(C#N)c1 [Compound 3a, reference compound]
IC50 [5]: 0.195 ± 0.0253 µM | EC50 (SARS-CoV-2 [1]): > 100 µM | EC50 (SARS-CoV-2 [2]): > 100 µM | CC50 at 3 days (in vitro [6]): > 100 µM | CC50 at 3 days (in vitro [7]): > 100 µM

CCN(C[C@H]1O[C@@H](n2cc(C#Cc3cncnc3)c3c(N)ncnc32)[C@H](O)[C@@H]1O)S(=O)(=O)c1ccc(OC)c(C#N)c1 [Compound 12m]
IC50 [5]: 0.051 ± 0.0062 µM | EC50 (SARS-CoV-2 [1]): > 100 µM | EC50 (SARS-CoV-2 [2]): > 100 µM | CC50 at 3 days (in vitro [6]): > 100 µM | CC50 at 3 days (in vitro [7]): > 100 µM

CCN(C[C@H]1O[C@@H](n2cc(C#Cc3c[nH]c(=O)nc3N)c3c(N)ncnc32)[C@H](O)[C@@H]1O)S(=O)(=O)c1ccc(OC)c(C#N)c1 [Compound 12k]
IC50 [5]: 0.088 ± 0.0112 µM | EC50 (SARS-CoV-2 [1]): > 100 µM | EC50 (SARS-CoV-2 [2]): > 100 µM | CC50 at 3 days (in vitro [6]): > 100 µM | CC50 at 3 days (in vitro [7]): > 100 µM

CCN(C[C@H]1O[C@@H](n2cc(C#Cc3ccccc3)c3c(N)ncnc32)[C@H](O)[C@@H]1O)S(=O)(=O)c1ccc(OC)c(C#N)c1 [Compound 12c]
IC50 [5]: 0.062 ± 0.0124 µM | EC50 (SARS-CoV-2 [1]): > 100 µM | EC50 (SARS-CoV-2 [2]): > 100 µM | CC50 at 3 days (in vitro [6]): > 100 µM | CC50 at 3 days (in vitro [7]): > 100 µM

CCN(C[C@H]1O[C@@H](n2cc(C#Cc3ccncc3)c3c(N)ncnc32)[C@H](O)[C@@H]1O)S(=O)(=O)c1ccc(OC)c(C#N)c1 [Compound 12n]
IC50 [5]: 0.041 ± 0.0071 µM | EC50 (SARS-CoV-2 [1]): > 100 µM | EC50 (SARS-CoV-2 [2]): > 100 µM | CC50 at 3 days (in vitro [6]): > 100 µM | CC50 at 3 days (in vitro [7]): > 100 µM

CCN(C[C@H]1O[C@@H](n2cc(C#Cc3c[nH]c(=O)[nH]c3=O)c3c(N)ncnc32)[C@H](O)[C@@H]1O)S(=O)(=O)c1ccc(OC)c(C#N)c1 [Compound 12j]
IC50 [5]: 0.07 ± 0.0081 µM | EC50 (SARS-CoV-2 [1]): > 100 µM | EC50 (SARS-CoV-2 [2]): > 100 µM | CC50 at 3 days (in vitro [6]): > 100 µM | CC50 at 3 days (in vitro [7]): > 100 µM

CCN(C[C@H]1O[C@@H](n2cc(C#Cc3ccc(O)nc3)c3c(N)ncnc32)[C@H](O)[C@@H]1O)S(=O)(=O)c1ccc(OC)c(C#N)c1 [Compound 12f]
IC50 [5]: 0.065 ± 0.0092 µM | EC50 (SARS-CoV-2 [1]): > 100 µM | EC50 (SARS-CoV-2 [2]): > 100 µM | CC50 at 3 days (in vitro [6]): > 100 µM | CC50 at 3 days (in vitro [7]): > 100 µM

CCN(C[C@H]1O[C@@H](n2cc(C#Cc3ncc[nH]3)c3c(N)ncnc32)[C@H](O)[C@@H]1O)S(=O)(=O)c1ccc(OC)c(C#N)c1 [Compound 12b]
IC50 [5]: 0.034 ± 0.0049 µM | EC50 (SARS-CoV-2 [1]): > 100 µM | EC50 (SARS-CoV-2 [2]): > 100 µM | CC50 at 3 days (in vitro [6]): > 100 µM | CC50 at 3 days (in vitro [7]): > 100 µM

CCN(C[C@H]1O[C@@H](n2cc(C#Cc3cccc4ccccc34)c3c(N)ncnc32)[C@H](O)[C@@H]1O)S(=O)(=O)c1ccc(OC)c(C#N)c1 [Compound 12d]
IC50 [5]: 0.261 ± 0.0516 µM | EC50 (SARS-CoV-2 [1]): > 100 µM | EC50 (SARS-CoV-2 [2]): > 100 µM | CC50 at 3 days (in vitro [6]): > 100 µM | CC50 at 3 days (in vitro [7]): > 100 µM

COc1ccc(S(=O)(=O)N(C[C@H]2O[C@@H](n3cnc4c(N)ncnc43)[C@H](O)[C@@H]2O)C(C)C)cc1C#N [Compound 3c]
IC50 [5]: 0.624 ± 0.0891 µM

COc1ccc(S(=O)(=O)N(C[C@H]2O[C@@H](n3cnc4c(N)ncnc43)[C@H](O)[C@@H]2O)C2CCCC2)cc1C#N [Compound 3d]
IC50 [5]: 2.38 ± 0.278 µM

COc1ccc(S(=O)(=O)N(C)C[C@H]2O[C@@H](n3cnc4c(N)ncnc43)[C@H](O)[C@@H]2O)cc1C#N [Compound 3b]
IC50 [5]: 0.128 ± 0.0144 µM

Nc1ncnc2c1c(C#Cc1cnc3ccccc3c1)cn2[C@@H]1O[C@H](CSCC[C@H](N)C(=O)O)[C@@H](O)[C@H]1O [TO507, reference compound]
IC50 [5]: 0.068 ± 0.0121 µM | EC50 (SARS-CoV-2 [1]): > 100 µM | EC50 (SARS-CoV-2 [2]): > 100 µM | CC50 at 3 days (in vitro [6]): > 100 µM | CC50 at 3 days (in vitro [7]): > 100 µM
